Data published in patent US5859333A, “Plants and processes for obtaining them” (Zeneca Limited, priority 1992, dated 1999).
Like-named read-outs stand apart in the source and are kept apart here. Where no end group is shown, it is not given here.

How the values were obtained:
[1] = biological target: T1, sweet corn SGP (Zea mays, UniProt P80607); assay: Self-glucosylating protein (SGP) assay, incorporation of 14C-glucose from UDP-[14C]glucose into TCA-precipitable protein; type: biochemical; conditions: for inhibitory effect on activity of sweet corn SGP: result in words; for stimulating effect of divalent cation on sweet corn SGP activity: concentration dependence measured, manganese at 5 mM
T1 construct: not recombinant
T1 sequence (P80607 whole entry): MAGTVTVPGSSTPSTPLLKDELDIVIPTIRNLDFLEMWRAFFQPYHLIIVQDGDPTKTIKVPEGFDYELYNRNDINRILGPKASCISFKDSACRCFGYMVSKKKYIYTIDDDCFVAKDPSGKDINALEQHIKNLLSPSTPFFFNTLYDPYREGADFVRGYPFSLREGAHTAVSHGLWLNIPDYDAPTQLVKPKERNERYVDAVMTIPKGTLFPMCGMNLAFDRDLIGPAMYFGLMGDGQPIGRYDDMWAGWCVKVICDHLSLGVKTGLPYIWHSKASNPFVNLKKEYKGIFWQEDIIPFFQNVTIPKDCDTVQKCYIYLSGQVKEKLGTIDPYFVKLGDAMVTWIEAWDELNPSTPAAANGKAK
Method: The reaction was stopped by the addition of 1 ml of 10% TCA (trichloroacetic acid). After standing for 10 minutes the sample was passed through a nitrocellulose filter, type HA 0.45 uM, washed with about 3 ml 10% TCA and approximately 10 ml of water and the filter dried under an infrared lamp. Following this, the filter was placed in 4 ml of scintillation liquid (Ecolume) and measured for ^14 C radioactivity in a Searle Delta 300 6890 liquid scintillation counter.
The radioactivity measured on the filter represents ^14 C-glucose that was incorporated into TCA-precipitable material (assuming no conversion to the glucose molecule into any other compound). […] Endogenously glucosylated SGP would not be detectable and could not be quantitated by this method.

[2] = biological target: T2, Rabbit muscle SGP (Oryctolagus cuniculus, UniProt P13280); assay: Self-glucosylation activity of rabbit muscle SGP (glycogenin); type: biochemical; conditions: for inhibition of the self-glucosylating protein in rabbit muscle: act as alternative substrates
T2 construct: from tissue; host or cells: rabbit muscle
T2 sequence (P13280 1-333): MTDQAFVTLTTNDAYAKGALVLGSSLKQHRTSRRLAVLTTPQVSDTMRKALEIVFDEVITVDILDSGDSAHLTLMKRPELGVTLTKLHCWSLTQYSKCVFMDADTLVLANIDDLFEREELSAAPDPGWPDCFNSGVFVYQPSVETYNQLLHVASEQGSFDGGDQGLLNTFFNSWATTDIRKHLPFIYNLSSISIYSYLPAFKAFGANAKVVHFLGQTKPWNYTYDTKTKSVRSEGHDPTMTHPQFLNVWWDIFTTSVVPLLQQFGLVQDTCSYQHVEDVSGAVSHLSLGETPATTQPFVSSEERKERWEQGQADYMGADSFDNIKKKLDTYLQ

[3] = system: proteins of molecular weight higher than SGP; conditions: 16 fold purified extract, 24 hr
[4] = biological target: amylogenin (self-glucosylating protein, SGP) from maize (Zea mays) endosperm (Zea mays) (UniProt P80607)

Molecule: Nc1ncnc2c1ncn2[C@@H]1O[C@H](COP(=O)(O)OP(=O)(O)OP(=O)(O)O)[C@@H](O)[C@H]1O [ATP, adenosine triphosphate]
- IC50 [1]: 100 µM
- inhibitory effect on activity of sweet corn SGP [1]: potent inhibitor
- potency as inhibitor of sweet corn SGP relative to rabbit muscle SGP ([1]; sweet corn SGP vs rabbit muscle SGP): 30 fold
- IC50 ([2]; read-out: concentration giving 50% inhibition of rabbit muscle SGP): 3500 µM

Molecule: [Ca+2] [Calcium]
- stimulating effect of divalent cation on sweet corn SGP activity [1]: no stimulatory effect

Molecule: O=C(O)CN(CCN(CC(=O)O)CC(=O)O)CC(=O)O [EDTA, ethylene diamine tetra acetate]
- sweet corn SGP activity after treatment with chelator ([1]; treated with EDTA): looses all its activity

Molecule: [Cl][Mn][Cl] [Manganese, MnCl2]
- stimulating effect of divalent cation on sweet corn SGP activity [1]: most potent stimulating effect
- stimulation of muscle SGP by divalent cation ([2]; result in words): stimulated
- effect on radioglucosylation of higher molecular weight proteins ([3]; 1 mM): proceeds
- effect on radioglucosylation of higher molecular weight proteins ([3]; 5 mM): inhibited

Molecule: N=C(N)NCCC[C@H](N)C(=O)O [arginine]
- inhibitory effect on activity of sweet corn SGP [1]: No effect

Molecule: [Mg+2] [magnesium]
- maximum stimulating effect on sweet corn SGP ([1]; at 10 mM concentration): about 50%

Molecule: O=[N+]([O-])c1ccc(O)cc1 [p-Nitrophenol]
- inhibitory effect on activity of sweet corn SGP [1]: no effect

Molecule: O=[N+]([O-])c1ccc(OC2O[C@H](CO)[C@@H](O[C@H]3O[C@H](CO)[C@@H](O)[C@H](O)[C@H]3O)[C@H](O)[C@H]2O)cc1 (some centres unmarked) [p-nitro-phenylmaltose]
- inhibition of the self-glucosylating protein in rabbit muscle ([2]; result in words): inhibited

Molecule: O=[N+]([O-])c1ccc(OC2O[C@H](CO)[C@@H](O[C@H]3O[C@H](CO)[C@@H](O[C@H]4O[C@H](CO)[C@@H](O[C@H]5O[C@H](CO)[C@@H](O)[C@H](O)[C@H]5O)[C@H](O)[C@H]4O)[C@H](O)[C@H]3O)[C@H](O)[C@H]2O)cc1 (some centres unmarked) [p-nitrophenyl- maltotetrose]
- inhibition of the self-glucosylating protein in rabbit muscle ([2]; result in words): inhibited

Molecule: O=[N+]([O-])c1ccc(O[C@H]2O[C@H](CO)[C@@H](O)[C@H](O)[C@H]2O)cc1 [p-nitrophenyl-alpha-glucoside]
- inhibitory effect on activity of sweet corn SGP [1]: no effect

Molecule: O=[N+]([O-])c1ccc(O[C@@H]2O[C@H](CO)[C@@H](O)[C@H](O)[C@H]2O)cc1 [p-nitrophenyl-beta-glucoside]
- inhibitory effect on activity of sweet corn SGP [1]: no effect

Molecule: O=[N+]([O-])c1ccc(OC2O[C@H](CO)[C@@H](O[C@H]3O[C@H](CO)[C@@H](O[C@H]4O[C@H](CO)[C@@H](O)[C@H](O)[C@H]4O)[C@H](O)[C@H]3O)[C@H](O)[C@H]2O)cc1 (some centres unmarked) [p-nitrophenylmaltotriose]
- inhibition of the self-glucosylating protein in rabbit muscle ([2]; result in words): inhibited

Molecule: TPCK-trypsin (enzyme)
- proteolysis (trypsinolysis) of SGP [4]: 70%

Molecule: synthetic peptide comprising the same amino acid sequence as the glucosylated tryptic peptide T2: synthetic peptide with the sequence of tryptic peptide T2 (SEQ ID NO: 2, E G A N F V X G Y P F S L R) (EGANFVXGYPFSLR; not fully specified; X: residue not identified in the source)
- inhibitory effect on activity of sweet corn SGP [1]: No effect
